Laboratory results published in patent publication US5320825A, “Serotonin reuptake inhibitors for S.P.E.C.T. imaging” (Trustees of the University of Pennsylvania, priority 1991, dated 1994).
Counter-ions that a name gives are not always drawn. Like-named read-outs stand apart in the source and are kept apart here.

Legend:
[1] = target: norepinephrine reuptake sites (Rattus norvegicus, UniProt Q63380); assay: in vitro competitive binding assay, norepinephrine uptake sites, [3H]-Nisoxetine; details: rat brain tissue preparation
norepinephrine reuptake sites, sequence (Q63380 1-617): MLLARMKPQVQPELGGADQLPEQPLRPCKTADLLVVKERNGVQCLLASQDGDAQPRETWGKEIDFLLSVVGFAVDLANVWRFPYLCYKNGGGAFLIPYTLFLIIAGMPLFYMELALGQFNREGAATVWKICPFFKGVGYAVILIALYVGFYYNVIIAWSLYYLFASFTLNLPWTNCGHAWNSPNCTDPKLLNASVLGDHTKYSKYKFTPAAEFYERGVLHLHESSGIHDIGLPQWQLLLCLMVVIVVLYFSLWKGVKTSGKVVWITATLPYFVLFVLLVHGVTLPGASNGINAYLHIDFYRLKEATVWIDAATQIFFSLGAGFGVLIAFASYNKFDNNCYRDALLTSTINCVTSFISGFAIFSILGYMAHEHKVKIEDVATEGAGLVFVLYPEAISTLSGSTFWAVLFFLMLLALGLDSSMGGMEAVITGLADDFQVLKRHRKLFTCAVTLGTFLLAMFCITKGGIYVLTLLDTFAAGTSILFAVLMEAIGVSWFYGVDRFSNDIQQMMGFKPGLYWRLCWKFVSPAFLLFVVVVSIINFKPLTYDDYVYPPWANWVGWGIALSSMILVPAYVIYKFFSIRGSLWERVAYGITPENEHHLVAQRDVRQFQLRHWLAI
Description: (§1) The affinity of the compounds prepared in Examples 1-4 to serotonin and norepinephrine uptake sites was studied using in vitro competitive binding assays.

serotonin reuptake sites = target: T1, serotonin reuptake sites (Rattus norvegicus, UniProt P31652); assay: in vitro competitive binding assay, serotonin uptake sites, [3H]-Paroxetine
T1 construct: in rat brain tissue preparation; from tissue
T1 sequence (P31652 whole entry): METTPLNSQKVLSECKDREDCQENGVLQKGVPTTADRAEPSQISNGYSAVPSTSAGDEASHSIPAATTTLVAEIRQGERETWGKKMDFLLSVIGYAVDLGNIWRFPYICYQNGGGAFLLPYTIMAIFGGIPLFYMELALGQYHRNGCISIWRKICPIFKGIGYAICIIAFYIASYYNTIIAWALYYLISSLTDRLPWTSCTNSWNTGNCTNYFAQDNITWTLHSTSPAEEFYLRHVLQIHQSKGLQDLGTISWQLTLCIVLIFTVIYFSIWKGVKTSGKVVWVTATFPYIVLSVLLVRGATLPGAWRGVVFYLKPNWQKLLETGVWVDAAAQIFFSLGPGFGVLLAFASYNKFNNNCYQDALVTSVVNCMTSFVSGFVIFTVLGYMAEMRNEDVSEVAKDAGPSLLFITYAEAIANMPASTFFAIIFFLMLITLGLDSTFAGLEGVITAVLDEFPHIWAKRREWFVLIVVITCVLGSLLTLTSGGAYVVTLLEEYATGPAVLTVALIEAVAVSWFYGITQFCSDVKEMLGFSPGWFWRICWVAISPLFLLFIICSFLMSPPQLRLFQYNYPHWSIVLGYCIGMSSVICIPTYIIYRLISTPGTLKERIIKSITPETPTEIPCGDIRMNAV
Description: as §1

[2] = target: dopamine (DA) reuptake system; details: read-out: Inhibition of monoamine uptake, DA (Ki), cited from earlier work
[3] = target: norepinephrine (NE) reuptake system; details: rat synaptosomes; read-out: Inhibition of monoamine uptake, NE (Ki); cited from earlier work
[4] = target: serotonin reuptake system (5-HT); details: rat synaptosomes; read-out: Inhibition of monoamine uptake, 5-HT (Ki); cited from earlier work

CNCC[C@H](Oc1cccc(I)c1)c1ccccc1 [Compound 11, [S]-(+)-N-Methyl-3-phenyl-3-(3-iodophenoxy)propylamine]
IC50 [1]: 7 µM
Ki (serotonin reuptake sites; rat brain tissue preparation, [3H]-Paroxetine, read-out: Serotonin Uptake [3H]-Paroxetine Ki): 0.0082 µM

CNCC[C@H](Oc1ccc(I)cc1C)c1ccccc1 [Compound 14, {S}-(+)-N-Methyl-3-phenyl-3-(4-iodo-2-methylphenoxy)propylamine hydrochloride]
IC50 [1]: 0.009 µM
Ki (serotonin reuptake sites): 0.0008 µM

CNCCC(Oc1ccc(C(F)(F)F)cc1)c1ccccc1 (stereo not drawn) [Fluoxetine]
Ki [2]: 1.59 µM

CNCCC(Oc1ccccc1OC)c1ccccc1 (stereo not drawn) [Nisoxetine]
Ki [3]: 0.67 µM
Ki ([2]; rat synaptosomes): 0.365 µM
Ki [4]: 0.0038 µM

Fc1ccc([C@@H]2CCNC[C@H]2COc2ccc3c(c2)OCO3)cc1 [Paroxetine]
Ki [3]: 0.35 µM

CN[C@@H]1CC[C@@H](c2ccccc2)c2ccccc21 [Tametraline]
Ki [3]: 0.02 µM
Ki ([2]; rat synaptosomes): 0.06 µM
Ki [4]: 0.05 µM
